Molecules are shown by their SMILES.

Experiment in the first series: not given
For the compound `OC1(Cn2cncn2)CCCC1Cc1ccccc1Cl` (stereo not given), the logP (as a rule, the decadic logarithm of the partition coefficient of the neutral form, usually between octanol and water) is 2.95.
Still for that read-out and setting: under `OC1(Cn2cncn2)CCCC1Cc1ccc(Cl)cc1Cl` (stereo not given) stands 3.87.
Compound `OC1(Cn2cncn2)CCCC1Cc1cccc(Cl)c1` (stereo not given) returned a log partition coefficient (logP) of 2.98.
`OC1(Cn2cncn2)CCCC1Cc1ccc(Cl)cc1` (stereo not given) registered a logP of 3.11.
`OC1(Cn2cncn2)CCCC1Cc1cccc(C(F)(F)F)c1` (stereo not given) had a logP of 3.07.
Still for that read-out and setting: the result for `OC1(Cn2cncn2)CCCC1Cc1ccc(F)c(F)c1` (stereo not given) reads 2.51; that for `N#Cc1ccc(CC2CCCC2(O)Cn2cncn2)cc1` (stereo not given), 1.7.
As to `OC1(Cn2cncn2)CCCC1Cc1ccc(Cl)cc1F` (stereo not given), the logP turned out to be 3.27.
The same measure, in the same setting: the result for `OC1(Cn2cncn2)CCCC1Cc1c(F)cccc1F` (stereo not given) reads 2.6; that for `OC1(Cn2cncn2)CCCC1Cc1c(F)c(F)c(F)c(F)c1F` (stereo not given), 3.16; that for `OC1(Cn2cncn2)CCCC1Cc1ccc(F)cc1F` (stereo not given), 2.6.
With `OC1(Cn2cncn2)CCCC1Cc1ccc(C(F)(F)F)cc1` (stereo not given), the logP came to 3.07.
As to `OC1(Cn2cncn2)CCCC1Cc1ccc(F)cc1` (stereo not given), the log partition coefficient (logP) was 2.39.

Another series is described as follows: method code SF, from DOI: 10.1021/bk-1995-0606.ch013.
`Cc1ccc(CC2CCC(C)(C)C2(O)Cn2cncn2)cc1` (stereo not given) registered a log partition coefficient (logP) of 3.43.
On the same count and under the same terms, under `CCC1CCC(Cc2ccc(Cl)cc2Cl)C1(O)Cn1cncn1` (stereo not given) stands 4.78; under `Cc1ccc(CC2CCCC2(O)Cn2cncn2)cc1` (stereo not given), 2.71.
On the same count and under the same terms, the result for `CC(C)(C)c1ccc(CC2CCCC2(O)Cn2cncn2)cc1` (stereo not given) reads 3.97; that for `CCCOC/C(=N\c1ccc(Cl)cc1C(F)(F)F)n1ccnc1`, 4.5.
With `CCC1CCC(Cc2ccc(Cl)cc2)C1(O)Cn1cncn1` (stereo not given), the log partition coefficient (logP) was 4.02.
The compound `OC1(Cn2cncn2)CCCC1Cc1ccc(Br)cc1` (stereo not given) registered a log partition coefficient (logP) of 3.27.
The compound `CCC1CCC(Cc2ccc(-c3ccccc3)cc2)C1(O)Cn1cncn1` (stereo not given) returned a logP of 4.83.
Still for that read-out and setting: the result for `OC1(Cn2cncn2)CCCC1Cc1ccccc1` (stereo not given) reads 2.26; that for `OC1(Cn2cncn2)CCCC1Cc1ccc(-c2ccccc2)cc1` (stereo not given), 3.92; that for `CCC1CCC(Cc2ccc(F)cc2)C1(O)Cn1cncn1` (stereo not given), 3.3.
Same read-out and setting: under `CCC1CCC(Cc2ccc(C(C)(C)C)cc2)C1(O)Cn1cncn1` (stereo not given) stands 4.88; under `CCC1CCC(Cc2ccc(Br)cc2)C1(O)Cn1cncn1` (stereo not given), 4.18.
On the same count and under the same terms, under `CC1(C)CCC(Cc2ccc(Br)cc2)C1(O)Cn1cncn1` (stereo not given) stands 3.99.
In the case of `CC1(C)CCC(Cc2ccc(Cl)c(O)c2)C1(O)Cn1cncn1` (stereo not given), the log partition coefficient (logP) was 3.16.
`CC1(C)CCC(Cc2ccc(-c3ccccc3)cc2)C1(O)Cn1cncn1` (stereo not given) showed a logP of 4.64.
The compound `CC1(C)CCC(Cc2ccc(Cl)cc2F)C1(O)Cn1cncn1` (stereo not given) came in with a lipophilicity (logP) of 3.99.

For the origin of these results see the SangsterLogP compilation.
